Columns and labels:
[1] = test system: Sphaerotilus natans, ATCC 15291; test: 18 Hour Stokes Broth Test; format: cell-based; conditions: alone
Protocol: The bactericidal effects of the combined use of TCMTB and N-alkyl heterocyclic compounds against bacteria were measured using an 18 Hour Stokes Broth Test. Combinations of TCMTB and N-dodecyl morpho line (DDM) and of TCMTB and N-dodecyl imidazole (DDI) were tested against the bacteria Sphaerotilus natans, ATCC 15291. In this test, compound A was Busan® 1030 product, a 30% TCMTB formulation, and compound B was either DDM (99%) or DDI (99%). The Busan® […] product is available from Buckman Laboratories, Memphis, Tenn. The Stokes broth substrate used to evaluate effectiveness of microbicidal compositions against Sphaerotilus natans was prepared by adding the following to one liter of water: [table] The broth was adjusted to pH 7.0 with sodium hydroxide. Forty gram portions were then added to 180 mL Pyrex milk dilution bottles fitted with […] rubber stoppers and then sterilized. Each of the following substances was then added to each bottle in the order listed. • 1. Sterile distilled water as required in each individual case to bring the total weight of the contents of each bottle to 50 g after all subsequent additions specified below (including inoculation with the aqueous suspension of test organism) have been made. • 2. Solution of toxicant or control agent to be evaluated in such individual volumes as to give the concentration desired in parts per million by weight. • 3. One mL of a 24-hour old S. natans culture grown in Stokes broth. After the inoculant suspension of the test organism was added to the bottles they were incubated at 28° C. for 18 hours. After this incubation, a 1 mL of sample was withdrawn from each bottle, diluted, plated on Stokes agar, and incubated for 72-96 hr. at 28-30° C. Stokes agar was prepared like the broth with 12.5 g agar added per liter. The number of colonies on each plate was determined and converted to the count per milliliter of substrate. […] A percentage kill of 90 percent or higher represents an extremely useful bactericidal composition. […] Others may be calculated from the data presented.

[2] = test system: Desulfovibrio desulfuricans, ATCC 7757; test: 28 Day API Test; format: cell-based; set-up: key: 0=no growth; 4=heavy growth; conditions: alone
Protocol: The bactericidal effects of the combined use of TCMTB and N-alkyl heterocyclic compounds against bacteria were measured using an 28 Day API Test. Combinations of TCMTB (compound A) and N-dodecyl morpholine (DDM, compound B) and of TCMTB (compound A) and N-dodecyl imidazole (DDI, compound B) were tested against the bateria Desulfovibrio desulfuricans, ATCC 7757. Busan® 1030 product, a 30% TCMTB formulation, DDM (99%), and DDI (99%) were used in this testing. The Busan® […] product is available from Buckman Laboratories, Memphis Tenn. The medium used was a modified API Broth having the following composition: […] The compounds were dissolved in 1.0 L of deionized water to form the medium. The pH of the medium was adjusted to a final pH of 6.9 with 1 N sodium hydroxide prior to sterilization. The medium was sterilized at 121° C. for 20 minutes and then allowed to cool to room temperature. The medium is then inoculated by adding 10 ml per liter of a 24-hr. broth culture of Desulfovibrio desulfuricans. From stock solutions of the chemicals to be tested, sufficient amounts of the compounds were added to 1 oz. glass bottles so that when a bottle was completely filled, the desired concentration of the chemical was present. The bottles were then completely filled with the inoculated API broth (10 mL innoculum per liter medium) in a manner such as to exclude all air and provide an anaerobic state. The bottles were capped tightly and inverted gently to mix the contents and, at the same time, to make sure no air bubbles were present. Incubation was carried out at 37° C. for 28 days. Growth was indicated by blackening of the culture medium, whereas those bottles having sufficient chemical to inhibit growth would remain clear. Observations of growth were made at the end of 7 days, 14 days, 21 days and 28 days. […] The minimum inhibitory concentration (MIC) was defined as the lowest concentration tested which gave no growth in the bottle (clear liquid). […] Others may be calculated from the data presented.

CCCCCCCCCCCCn1ccnc1 [Dodecyl Imidazole, N-dodecyl imidazole]
6.80 × 10^5 CFU/mL: CFU/mL ([1]; Table 3, 2 ppm)
86.5%: % Kill ([1]; Table 3, 2 ppm)
<10^3 CFU/mL: CFU/mL ([1]; Table 3, 5 ppm) | CFU/mL ([1]; Table 3, 10 ppm) | CFU/mL ([1]; Table 3, 20 ppm) | CFU/mL ([1]; Table 3, 50 ppm) | CFU/mL ([1]; Table 3, 100 ppm)
1.26 × 10^6 CFU/mL: CFU/mL ([1]; Table 3, 1 ppm)
75.1%: % Kill ([1]; Table 3, 1 ppm)

CCCCCCCCCCCCN1CCOCC1 [Dodecyl Morpholine, N-dodecyl morpholine]
4: growth, Day 7 ([2]; Table 4, 10 ppm) | growth, Day 14 ([2]; Table 4, 10 ppm) | growth, Day 21 ([2]; Table 4, 10 ppm) | growth, Day 28 ([2]; Table 4, 10 ppm) | growth, Day 7 ([2]; Table 4, 20 ppm) | growth, Day 14 ([2]; Table 4, 20 ppm) | growth, Day 21 ([2]; Table 4, 20 ppm) | growth, Day 28 ([2]; Table 4, 20 ppm) | growth, Day 21 ([2]; Table 4, 40 ppm) | growth, Day 28 ([2]; Table 4, 40 ppm) | growth, Day 28 ([2]; Table 4, 80 ppm) | growth, Day 7 ([2]; Table 5, 1 ppm) | growth, Day 14 ([2]; Table 5, 1 ppm) | growth, Day 21 ([2]; Table 5, 1 ppm) | growth, Day 28 ([2]; Table 5, 1 ppm) | growth, Day 7 ([2]; Table 5, 2 ppm) | growth, Day 14 ([2]; Table 5, 2 ppm) | growth, Day 21 ([2]; Table 5, 2 ppm) | growth, Day 28 ([2]; Table 5, 2 ppm) | growth, Day 7 ([2]; Table 5, 4 ppm) | growth, Day 14 ([2]; Table 5, 4 ppm) | growth, Day 21 ([2]; Table 5, 4 ppm) | growth, Day 28 ([2]; Table 5, 4 ppm) | growth, Day 14 ([2]; Table 5, 8 ppm) | growth, Day 28 ([2]; Table 5, 8 ppm)
8.51 × 10^5 CFU/mL: CFU/mL ([1]; Table 2, 5 ppm)
1.58 × 10^6 CFU/mL: CFU/mL ([1]; Table 2, 1 ppm)
67.4%: % Kill ([1]; Table 2, 2 ppm)
3: growth, Day 14 ([2]; Table 4, 40 ppm) | growth, Day 21 ([2]; Table 4, 80 ppm) | growth, Day 28 ([2]; Table 4, 160 ppm)
2: growth, Day 7 ([2]; Table 4, 40 ppm) | growth, Day 21 ([2]; Table 4, 160 ppm) | growth, Day 7 ([2]; Table 5, 8 ppm)
58.4%: % Kill ([1]; Table 2, 1 ppm)
1.24 × 10^6 CFU/mL: CFU/mL ([1]; Table 2, 2 ppm)
77.6%: % Kill ([1]; Table 2, 5 ppm)
1: growth, Day 14 ([2]; Table 4, 80 ppm)
<10^3 CFU/mL: CFU/mL ([1]; Table 2, 10 ppm) | CFU/mL ([1]; Table 2, 20 ppm)
0: growth, Day 7 ([2]; Table 4, 80 ppm) | growth, Day 7 ([2]; Table 4, 160 ppm) | growth, Day 14 ([2]; Table 4, 160 ppm) | growth, Day 7 ([2]; Table 4, 320 ppm) | growth, Day 14 ([2]; Table 4, 320 ppm) | growth, Day 21 ([2]; Table 4, 320 ppm) | growth, Day 28 ([2]; Table 4, 320 ppm) | growth, Day 7 ([2]; Table 5, 16 ppm) | growth, Day 14 ([2]; Table 5, 16 ppm) | growth, Day 21 ([2]; Table 5, 16 ppm) | growth, Day 28 ([2]; Table 5, 16 ppm) | growth, Day 7 ([2]; Table 5, 32 ppm) | growth, Day 14 ([2]; Table 5, 32 ppm) | growth, Day 28 ([2]; Table 5, 32 ppm)

— patent publication USRE39148E1, “Potentiation of the Microbicide 2-(Thiocyanomethylthio)benzothiazole using an n-alkyl heterocyclic compound” (Buckman Laboratories International, Inc., priority 1995, dated 2006)
